# Test system: HeLa cells
# Experiment: Cell-based pharmacodynamic assay (CellTiter-Glo proliferation inhibition), HeLa
# Settings: human cervical cancer HeLa cells; 72 hours incubation; CellTiter-Glo luminescence; read-out: IC50 against HeLa cells
# Procedure: Complete media such as RPMI 1640 (Gibco, A1049101), EMEM (ATCC, 30-2003), DMEM (Gibco, C11995500CP), McCoy's 5A (Gibco, 16600082), and F-12K (ATCC, 30-2004) were prepared by supplementing with varying concentrations of FBS (Biological Industries, 04-002-1A) and 1% Penicillin-Streptomycin (Gibco, 15140122) and was thoroughly mixed. Tumor cell lines including HeLa (ATCC, CCL-2; EMEM + 10% FBS), TOV-21G (Cobioer, CBP60292; 1:1 mixture of MCDB 105 and Medium 199 + 15% FBS), OVCAR-3 (ATCC, HTB-161; RPMI 1640 + 20% FBS + 0.01 mg/ml bovine insulin), SK-OV-3 (ATCC, HTB-77; McCoy's 5A + 10% FBS), A2780 (Cobioer, CBP60283; RPMI 1640 + 10% FBS), OC316 (Cobioer, CBP60620; RPMI 1640 + 10% FBS), HuH-7 (Cobioer, CBP60202; DMEM + 10% FBS), SNU-398 (ATCC, CRL-2233; RPMI 1640 + 10% FBS), NCI-H2286 (ATCC, CRL-5938; RPMI 1640 + 5% FBS), NCI-H82 (ATCC, HTB-175; RPMI 1640 + 10% FBS), A549 (ATCC, CCL-185; F-12K + 10% FBS), SK-MEL-3 (ATCC, HTB-69; McCoy's 5A + 15% FBS), PSN-1 (Cobioer, CBP61215; RPMI 1640 + 10% FBS), LoVo (ATCC, CCL-229; F-12K + 10% FBS), DLD-1 (ATCC, CCL-221; RPMI 1640 + 10% FBS), HCT-15 (ATCC, CCL-225; RPMI 1640 + 10% FBS), A498 (ATCC, HTB-44; EMEM + 10% FBS), LNCaP (ATCC, CRL-1740; RPMI 1640 + 10% FBS), SNU-1 (ATCC, CRL-5971; RPMI 1640 + 10% FBS), SCC-9 (Cobioer, CBP60428; DMEM/F12 (1:1) + 10% FBS + 0.5 mM sodium pyruvate + 400 ng/ml hydrocortisone), SU-DHL-5 (ATCC, CRL-2958; RPMI 1640 + 10% FBS), Toledo (ATCC, CRL-2631; RPMI 1640 + 10% FBS), and SJCRH30 (ATCC, CRL-2061; RPMI 1640 + 10% FBS) were thawed. Cells were passaged approximately twice, and those in good growth condition (typically passages 4-6) were selected for experiments. The medium was aspirated, and the cells were washed once with 0.25% trypsin (Invitrogen, 25200-072). The waste liquid was discarded, and 3 mL of fresh trypsin was added to the culture flask for digestion. When the cells began to detach, 9 mL of complete medium was added to neutralize the trypsin digestion, and the mixture was gently mixed. The cell suspension was transferred to a centrifuge tube using a pipette and centrifuged at 1000 rpm for 5 minutes. The supernatant was discarded, and 5 mL of medium was added to the centrifuge tube to gently resuspend the cells evenly. The cell concentration was adjusted to 1×10^4/mL-3×10^4/mL using a cell counter (Beckman Coulter, Vi-cellTM XR). The cell suspension was added to a 96-well plate (Corning, 3903) at 100 µL/well. The plate was labeled with details such as cell name, seeding density, and date, and then placed in a CO2 incubator (Thermo, Thermo 3111) overnight. Test compounds were prepared as 20 mM stock solutions in DMSO (Sigma, D4540-1L) and added to the corresponding cell wells using an HPD300 automated dispenser according to the designed layout. The plates were incubated in a 37°C, 5% CO2 incubator for 72 hours. CellTiter-Glo Buffer was thawed at room temperature. The lyophilized CellTiter-Glo substrate was equilibrated to room temperature. The CellTiter-Glo Buffer was added to the CellTiter-Glo substrate and thoroughly mixed. The cell plates were removed and equilibrated to room temperature, and 50 µL of the mixed CellTiter-Glo reagent was added to each well. The plates were protected from light and shaken for 10 minutes, followed by incubation for 10 minutes. The plates were placed in an Enspire reader (luminescence measurement time: 0.5 s) to record luminescence results. The inhibition rate was calculated using the following formula: Inhibition rate (%) = (1 - (RLU_compound - RLU_blank) / (RLU_DMSO - RLU_blank)) × 100%. Dose-response curves were plotted using XLFit to calculate IC50 values. A four-parameter model was used: [fit = (A + ((B - A) / (1 + ((C/x) ^ D)))]. The test results for HeLa cells are shown in Table 1. Table 1: IC50 values of some test compounds against human cervical cancer HeLa cells
row,SMILES,IC50 [nM]
1,O=C1CCCc2c1[nH]c1cccc(-c3ccncc3)c21 [Compound B96],≤ 200
2,Cc1ccc2[nH]c3c(c2c1)CCCC3=N[C@@H]1CCNC1 [Compound E04R],≤ 200
3,[2H]C([2H])([2H])n1cc(-c2cccc3[nH]c4c(c23)CCCC4=O)cn1 [Compound B191],≤ 200
4,CCOC(=O)c1cccc2c1c1c(n2C(=O)C2(F)CCOCC2)C(=O)CCC1 [Compound C49],≤ 200
5,Cc1nnc(-c2cccc3[nH]c4c(c23)CCCC4=O)o1 [Compound B70],≤ 200
6,COC(=O)c1cc(F)cc2[nH]c3c(c12)CCCC3=O [Compound B83],≤ 200
7,Cc1nn(C)cc1-c1cccc2[nH]c3c(c12)CCCC3=O [Compound B180],≤ 500
8,CC(C)(C)COC(=O)c1cccc2[nH]c3c(c12)CCCC3=O [Compound B40],≤ 200
9,CCOC(=O)c1cccc2c1c1c(n2C(=O)CCCN(C)C)C(=O)CCC1 [Compound C50],≤ 200
10,O=C1CCCc2c1[nH]c1cccc(C(=O)OC3CC3)c21 [Compound B26],≤ 200
11,O=C1CCCc2c1[nH]c1cccc(C(=O)OC(CO)CO)c21 [Compound B149],≤ 200
12,CCCCOC(=O)c1cccc2[nH]c3c(c12)CCCC3=O [Compound B25],≤ 200
13,COCCOC(=O)c1cccc2[nH]c3c(c12)CCCC3=O [Compound B38],≤ 200
14,CCOC(=O)c1cccc2c1c1c(n2C(=O)C2(C)CCOCC2)C(=O)CCC1 [Compound C45],≤ 200
15,CCC#Cc1cccc2[nH]c3c(c12)CCCC3=O [Compound B126],≤ 200
16,O=C1CCCc2c1[nH]c1cccc(N3CCOCC3)c21 [Compound B63],≤ 200
17,CCOC(=O)c1cccc2c1c1c(n2C(=O)c2ccc(C)cc2)C(=O)CCC1 [Compound C23],≤ 200
18,CN(C)c1cccc2[nH]c3c(c12)CCCC3=O [Compound B65],≤ 200
19,CCOC(=O)c1c(C)ccc2[nH]c3c(c12)CCCC3=O [Compound B117],≤ 200
20,C=CC(=O)n1c2c(c3c(C(=O)OCC)cccc31)CCCC2=O [Compound C03],≤ 200
21,CCOC(=O)c1cccc2c1c1c(n2C(=O)c2ccccc2)C(=O)CCC1 [Compound C04],≤ 200
22,COc1ccc(Cn2nnc(-c3cccc4[nH]c5c(c34)CCCC5=O)n2)cc1 [Compound B94],≤ 500

row,SMILES,IC50 [nM]
1,NS(=O)(=O)c1cccc2[nH]c3c(c12)CCCC3=O [Compound B75],≤ 500
2,C#CC(C)OC(=O)c1cccc2[nH]c3c(c12)CCCC3=O (racemic) [Compound B36],≤ 200
3,CCOC(=O)c1cccc2c1c1c(n2C(=O)C2CCOCC2)C(=O)CCC1 [Compound C17],≤ 200
4,CCn1ncc(-c2cccc3[nH]c4c(c23)CCCC4=O)n1 [Compound B123],≤ 200
5,CCOC(=O)c1cccc2c1c1c(n2C(=O)OC2CCN(C)CC2)C(=O)CCC1 [Compound C18],≤ 200
6,C[C@H](O)COC(=O)c1cccc2[nH]c3c(c12)CCCC3=O [Compound B150],≤ 200
7,O=C1CCCc2c1[nH]c1cccc(C(=O)OC3CCOCC3)c21 [Compound B30],≤ 200
8,C#Cc1cccc(C(=O)n2c3c(c4c(C(=O)OCC)cccc42)CCCC3=O)c1 [Compound C22],≤ 200
9,O=C1CCCc2c1[nH]c1cccc(C3=CCOCC3)c21 [Compound B62],≤ 200
10,CCOC(=O)c1cccc2[nH]c3c(c12)CCC(N1CCC1)C3=O (racemic) [Compound B132],≤ 500
11,CCOC(=O)c1cccc2c1c1c(n2C(=O)C2CCOC(C)(C)C2)C(=O)CCC1 (racemic) [Compound C37],≤ 200
12,CCOCC(=O)n1c2c(c3c(C(=O)OCC)cccc31)CCCC2=O [Compound C14],≤ 200
13,O=C1CCCc2c1[nH]c1cccc(C(=O)OC3CCC(O)C3)c21 (stereo not shown) [Compound B177],≤ 200
14,Cc1ccc2[nH]c3c(c2c1)CCCC3=N[C@@H]1CCN(C)C1 [Compound E05R],≤ 200
15,CCOC(=O)c1c(Cl)ccc2[nH]c3c(c12)CCCC3=O [Compound B118],≤ 200
16,CCOC(=O)c1cccc2c1c1c(n2C(=O)c2cc(C)cc(OCC)n2)C(=O)CCC1 [Compound C32],≤ 200
17,O=C1CCCc2c1[nH]c1cccc(C(=O)OC3CCNC3)c21 (racemic) [Compound B27],≤ 500
18,N#Cc1cccc2[nH]c3c(c12)CCCC3=O [Compound B61],≤ 200
19,C#CCOCC(C)OC(=O)c1cccc2[nH]c3c(c12)CCCC3=O (racemic) [Compound B111],≤ 200
20,O=C1CCCc2c1[nH]c1cccc(N3CCn4cnnc4C3)c21 [Compound B19],≤ 200
21,C#Cc1cccc2[nH]c3c(c12)CCCC3=O [Compound B68],≤ 200
22,O=C1CCCc2c1[nH]c1cccc(CO)c21 [Compound B56],≤ 200

# The next lines start with the values.
row,IC50 [nM],SMILES
1,≤ 200,Cc1ccc2[nH]c3c(c2c1)CCCC3=NC(CO)CO [Compound E14]
2,≤ 200,Cc1ccc2[nH]c3c(c2n1)CCCC3=NCCO [Compound E50]
3,≤ 200,CCN=C1CCCc2c1[nH]c1cccc(C(=O)OC)c21 [Compound E48]
4,≤ 200,COC(=O)c1cccc2[nH]c3c(c12)CCCC3=NC(CO)C(C)C (racemic) [Compound E60]
5,≤ 200,CCC(CO)N=C1CCCc2c1[nH]c1cccc(C(=O)OC)c21 (racemic) [Compound E58]
6,≤ 500,Cc1ccc2[nH]c3c(c2c1)CCCC3=NC(C)C(=O)OC(C)(C)C (stereo not shown) [Compound E44]
7,≤ 200,Cc1cccc2[nH]c3c(c12)CCCC3=NCCO [Compound E54]
8,≤ 200,Cc1ccc2[nH]c3c(c2c1)CCCC3=NCC(=O)OC(C)(C)C [Compound E10]
9,≤ 200,Cc1ccc2[nH]c3c(c2c1)CCCC3=NC1CCN(S(=O)(=O)C(C)C)CC1C (stereo not shown) [Compound E66]
10,≤ 200,CCCCCN=C1CCCc2c1[nH]c1ccc(C)cc21 [Compound E57]
11,≤ 500,CCC(CO)N=C1CCCc2c1[nH]c1ccc(C)cc21 (stereo not shown) [Compound E63]
12,≤ 200,CSCCC(N=C1CCCc2c1[nH]c1ccc(C)cc21)C(=O)OC(C)(C)C (stereo not shown) [Compound E71]
13,≤ 500,"Cc1ccc2[nH]c3c(c2c1)C(C)CCC3=NCCO (single isomer, unassigned) [Compound E41]"
14,≤ 200,Cc1ccc2[nH]c3c(c2c1)CCCC3=NC1(CO)CCC1 [Compound E08]
15,≤ 200,Cc1ccc2[nH]c3c(c2c1)CCCC3=NCCNCCO [Compound E11]
16,≤ 200,Cc1ccc2[nH]c3c(c2c1)CCCC3=NC(C(=O)OC(C)(C)C)C(C)C (stereo not shown) [Compound E56]
17,≤ 500,COc1ccc2[nH]c3c(c2c1)CCCC3=NCC(=O)OC(C)(C)C [Compound E33]

# Reference: EP4711356A1, “TETRAHYDROCARBAZOLE DERIVATIVE, PHARMACEUTICAL COMPOSITION, AND USE THEREOF” (Nain Biotech (Hangzhou) Co., Ltd., priority 2023, dated 2024)
